Results taken from USRE31071E, “6-Aza-3H-1,4-benzodiazepines” (Deutsche Gold- und Silber-Scheideanstalt vormals Roessler, priority 1971, dated 1982).

tested on: mice; assay: rotating rod test (ataxic activity); assay type: in vivo; conditions: quotient of ataxic to anxiolytic activity, orally, should be as large as possible
Text: Furthermore, there is given in this table the ataxic activity. The ratio of ataxic activity to the anxiolytic activity is of the greatest significance in using a material as an anxiolytic agent. This quotient should be as large as possible since an ataxic activity is undesirable. Ataxic activity means that the coordination of the muscular movements is disturbed--ataxicdisturbance of the muscular coordination. This means at the dosage at which a marked anxiolytic acitvity is present there should not be found a noteworthy ataxice. The toxicity, in case the data exists above the ataxic activity, is no longer important since the amount which is toxic is always considerably higher than the amount at which 50% (ED50) of the animals have an ataxic effect. The ataxic effect was measured on mice on the pattern of the rotating rod.
In the rotating rod test the animals (mice) were firest placed on a rotating rod 15 minutes after the application of the test material and then were placed on the rotating rod every 15 minutes and the animals which fell down within 2 minutes measured positive. From the number of animals which fell down expressed in percent there were drawn time-effect curves and the areas defined by it entered as percent effect in a probability network, the dosage-effect-line prepared and the ED50 read off. The ED50 mg/kg body weight of the mouse again specifies the dosage at which 50% of all the animals show a typical ataxic effect.

Q: Which “ED50 Rotating Rod / ED50 Card. Shock” value does the source give for CC1N=C(c2ccccc2)c2nc(Cl)ccc2NC1=O (racemic) [Example 4, 3-Methyl-5-phenyl-6-aza-7-chloro-1,2-dihydro-3H-1,4-benzodiazepinone-(2)] here?
A: 4.3

Q: With O=C1CN=C(c2ccccc2)c2nc(Cl)ccc2N1CC1CC1 [Example 19] as the compound, how does the “ED50 Rotating Rod / ED50 Card. Shock” value read?
A: 7.7

Q: For CN1C(=O)CN=C(c2ccccc2F)c2nc(Cl)ccc21 [Example 9, 1-Methyl-5-(o-fluorophenyl)-6-aza-7-chloro-1,2-dihydro-3H-1,4-benzodiazepinone-(2)], which “ED50 Rotating Rod / ED50 Card. Shock” value is on record?
A: 6.1

Q: Which “ED50 Rotating Rod / ED50 Card. Shock” value does the source give for O=C(O)CCC(=O)OC1N=C(c2ccccc2Cl)c2nc(Cl)ccc2NC1=O (stereo not drawn) [Example 12] here?
A: 13.5

Q: With O=C1CN=C(c2ccccc2Cl)c2nc(Cl)ccc2N1 [Example 6, 5-(o-Chlorophenyl)-6-aza-7-chloro-1,2-dihydro-3H-1,4-benzodiazepinone-(2)] as the compound, how does the “ED50 Rotating Rod / ED50 Card. Shock” value read?
A: 16.5

Q: For CN1C(=O)CN=C(c2ccccc2Cl)c2nc(Cl)ccc21 [Example 21, 1-Methyl-5-(o-chlorophenyl)-6-aza-7-chloro-1,2-dihydro-3H-1,4-benzodiazepinone-(2)], which “ED50 Rotating Rod / ED50 Card. Shock” value is on record?
A: 10.2

Q: Which “ED50 Rotating Rod / ED50 Card. Shock” value does the source give for O=C1CN=C(c2ccccc2F)c2nc(Cl)ccc2N1 [Example 10, 5-(-Fluorophenyl)-6-aza-7-chloro-1,2-dihydro-3H-1,4-benzodiazepinone-(2)] here?
A: 10.4

Q: For CN1C(=S)CN=C(c2ccccc2Cl)c2nc(Cl)ccc21 [Example 24, 1-Methyl-5-(o-chlorophenyl)-6-aza-7-chloro-1,2-dihydro-3H-1,4-benzodiazepinthione-(2)], which “ED50 Rotating Rod / ED50 Card. Shock” value is on record?
A: 12.5

Q: For CN1C(=O)CN=C(c2ccccc2)c2nc(Cl)ccc21 [Example 17, 1-Methyl-5-phenyl-6-aza-7-chloro-1,2-dihydro-3H-1,4-benzodiazepinone-(2)], which “ED50 Rotating Rod / ED50 Card. Shock” value is on record?
A: 6.2

Q: With CC(=O)OC1N=C(c2ccccc2Cl)c2nc(Cl)ccc2N(C(C)=O)C1=O (stereo not drawn) [Example 15, 1-Acetyl-3-acetoxy-5-(o-chlorophenyl)-6-aza-7-chloro-1,2-dihydro-3H-1,4-benzodiazepinone-(2)] as the compound, how does the “ED50 Rotating Rod / ED50 Card. Shock” value read?
A: 6.7

Q: Which “ED50 Rotating Rod / ED50 Card. Shock” value does the source give for O=C1Nc2ccc(Cl)nc2C(c2ccccc2Cl)=NC1O (stereo not drawn) [Example 13, 3-Hydroxy-5-o-chlorophenyl-6-aza-7-chloro-1,2-dihydro-3H-1,4-benzodiazepinone-(2)] here?
A: 15.0

Q: Which “ED50 Rotating Rod / ED50 Card. Shock” value does the source give for C=CCN1C(=O)CN=C(c2ccccc2)c2nc(Cl)ccc21 [Example 18, 1-Allyl-5-phenyl-6-aza-7-chloro-1,2-dihydro-3H-1,4-benzodiazepinone-(2)] here?
A: 8.2

tested on: not given; assay: not given; conditions: in words; cited from earlier work

Q: For CN(C)CCOC(C)(c1ccccc1)c1ccc(Cl)cc1 (stereo not drawn) [chlorphenoxamine], which antihistamine activity is on record?
A: antihistamine activity reduced

tested on: not given; assay: not given; conditions: J. Amer. Med. Ass. Vol. 170 (1959); cited from earlier work

Q: With CN(C)CCOC(C)(c1ccccc1)c1ccc(Cl)cc1 (stereo not drawn) [chlorphenoxamine] as the compound, how does the anticholinergic activity read?
A: strengthening of its anticholinergic activity

tested on: not given; assay: not given; conditions: First Int. Pharmacological Meeting, Vol. 7; cited from earlier work

Q: For CC(NN)c1ccccc1 (stereo not drawn) [alpha phenyl-ethyl hydrazine], which “stimulating activity / sedative action” value is on record?
A: strong stimulating activity
